The test system of data set [1] is Rattus norvegicus. The experiment in a line: Suppression of growth hormone production in GHRH-challenged sc dosed Sprague-Dawley rat plasma administered GHRH at 1 to 8 hrs post dose and measured 5 mins after each GHRH challenge by sandwich ELISA. The following applies: dose mg/kg 0.1-10, time hrs 1-8. In kind it is functional, organism-based. In general terms: An ELISA detects its analyte on a solid surface through an enzyme-linked reagent.

The nature of data set [2]: Oral bioavailability in Sprague-Dawley rat at 10 mg/kg. In kind it is ADME, organism-based. As to conditions: in vivo.
Data set [3] is described as follows: AUC (0 to infinity) in Sprague-Dawley rat at 10 mg/kg, po. In kind it is ADME, organism-based. Also noted: time infinity, route oral, dose 10 mg/kg. As to conditions: in vivo.
Data set [4] in a line: Cmax in Sprague-Dawley rat at 10 mg/kg, po. In kind it is ADME, organism-based. Also noted: route oral, dose 10 mg/kg. The following applies: in vivo.
The nature of data set [5]: Volume of distribution at steady state in Sprague-Dawley rat at 5 mg/kg, iv. In kind it is ADME, organism-based. As to conditions: in vivo, read-out: Vdss.
Data set [6] in a line: Half life in Sprague-Dawley rat at 5 mg/kg, iv. In kind it is ADME, organism-based. As to conditions: in vivo.
Data set [7] can be described thus: Half life in rat liver microsomes. In kind it is ADME, Microsome. For orientation: Liver microsomes are a subcellular fraction often used to study metabolism.
The nature of data set [8]: Observed clearance in Sprague-Dawley rat at 5 mg/kg, iv. In kind it is ADME, organism-based. As to conditions: in vivo.
For data set [9], the target named is Cytochrome P450 3A4 (Homo sapiens, UniProt P08684). The data set can be described thus: Inhibition of CYP3A4 (unknown origin). In kind it is ADME.
Sequence of Cytochrome P450 3A4 (P08684 whole entry): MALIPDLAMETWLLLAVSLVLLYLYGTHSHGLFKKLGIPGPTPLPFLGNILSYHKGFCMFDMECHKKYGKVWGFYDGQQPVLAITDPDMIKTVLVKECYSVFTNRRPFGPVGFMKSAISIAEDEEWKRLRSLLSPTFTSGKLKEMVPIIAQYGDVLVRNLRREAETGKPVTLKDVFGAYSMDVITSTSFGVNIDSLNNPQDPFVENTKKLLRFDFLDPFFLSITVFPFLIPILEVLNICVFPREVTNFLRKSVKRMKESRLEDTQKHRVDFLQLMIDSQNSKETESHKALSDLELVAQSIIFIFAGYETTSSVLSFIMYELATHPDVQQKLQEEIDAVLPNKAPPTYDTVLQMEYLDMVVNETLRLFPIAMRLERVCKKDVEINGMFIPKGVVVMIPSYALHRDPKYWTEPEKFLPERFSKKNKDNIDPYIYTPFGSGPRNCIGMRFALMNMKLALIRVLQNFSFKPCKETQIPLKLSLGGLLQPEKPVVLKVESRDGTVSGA
Data set [10] can be described thus: Half life in human liver microsomes. In kind it is ADME, Microsome.
Data set [11] addresses Cytochrome P450 2C19 (Homo sapiens, UniProt P33261). The data set can be described thus: Inhibition of CYP2C19 (unknown origin). In kind it is ADME.
Data set [12] has as its target Cytochrome P450 2C9 (Homo sapiens, UniProt P11712). The data set can be described thus: Inhibition of CYP2C9 (unknown origin). In kind it is ADME.
Data set [13] deals with Voltage-gated inwardly rectifying potassium channel KCNH2 (Homo sapiens, UniProt Q12809). The data set can be described thus: Inhibition of human ERG.
Sequence of Voltage-gated inwardly rectifying potassium channel KCNH2 (Q12809 whole entry): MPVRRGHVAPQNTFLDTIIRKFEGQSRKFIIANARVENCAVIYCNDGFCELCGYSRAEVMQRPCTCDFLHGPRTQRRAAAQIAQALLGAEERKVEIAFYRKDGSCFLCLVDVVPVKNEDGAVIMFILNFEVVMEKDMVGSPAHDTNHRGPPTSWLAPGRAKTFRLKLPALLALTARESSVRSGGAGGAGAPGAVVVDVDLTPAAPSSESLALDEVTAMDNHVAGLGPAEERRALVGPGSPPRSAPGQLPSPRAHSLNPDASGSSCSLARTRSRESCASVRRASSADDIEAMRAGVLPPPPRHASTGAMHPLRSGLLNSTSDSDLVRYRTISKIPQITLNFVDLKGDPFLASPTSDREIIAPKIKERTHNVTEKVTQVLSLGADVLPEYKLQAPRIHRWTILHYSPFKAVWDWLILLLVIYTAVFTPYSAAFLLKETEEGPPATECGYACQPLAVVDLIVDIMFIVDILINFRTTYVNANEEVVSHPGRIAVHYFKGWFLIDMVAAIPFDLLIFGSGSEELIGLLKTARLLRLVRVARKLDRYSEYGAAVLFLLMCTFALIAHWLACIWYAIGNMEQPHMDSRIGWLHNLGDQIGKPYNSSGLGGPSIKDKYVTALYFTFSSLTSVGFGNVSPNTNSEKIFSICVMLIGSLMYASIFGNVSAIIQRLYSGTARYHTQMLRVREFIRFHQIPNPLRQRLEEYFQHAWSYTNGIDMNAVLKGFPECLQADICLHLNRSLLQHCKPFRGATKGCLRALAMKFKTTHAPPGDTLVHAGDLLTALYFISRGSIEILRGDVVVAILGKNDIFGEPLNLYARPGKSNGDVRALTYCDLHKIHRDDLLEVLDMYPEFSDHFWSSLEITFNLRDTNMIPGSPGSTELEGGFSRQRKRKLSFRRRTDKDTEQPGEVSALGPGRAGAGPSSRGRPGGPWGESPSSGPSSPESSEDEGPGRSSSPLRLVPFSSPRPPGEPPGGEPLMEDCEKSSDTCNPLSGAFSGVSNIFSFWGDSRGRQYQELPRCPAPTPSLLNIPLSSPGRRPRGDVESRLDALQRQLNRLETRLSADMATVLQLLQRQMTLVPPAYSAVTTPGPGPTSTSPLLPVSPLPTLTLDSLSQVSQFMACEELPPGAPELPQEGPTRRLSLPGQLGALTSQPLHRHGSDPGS
The target of data set [14] is Somatostatin receptor type 5 (Homo sapiens, UniProt P35346). The data set can be described thus: Agonist activity at human SST5.
Sequence of Somatostatin receptor type 5 (P35346 whole entry): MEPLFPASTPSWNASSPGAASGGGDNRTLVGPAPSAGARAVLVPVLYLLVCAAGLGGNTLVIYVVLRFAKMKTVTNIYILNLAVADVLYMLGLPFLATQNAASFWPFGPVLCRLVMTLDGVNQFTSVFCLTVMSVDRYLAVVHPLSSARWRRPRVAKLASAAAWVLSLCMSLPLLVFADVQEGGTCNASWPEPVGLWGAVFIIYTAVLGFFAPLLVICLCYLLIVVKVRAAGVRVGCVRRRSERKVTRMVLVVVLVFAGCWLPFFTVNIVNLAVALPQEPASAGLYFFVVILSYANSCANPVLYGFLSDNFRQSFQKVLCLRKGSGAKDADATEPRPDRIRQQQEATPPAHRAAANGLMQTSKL
Data set [15] concerns the target Somatostatin receptor type 1 (Homo sapiens, UniProt P30872). The experiment in a line: Agonist activity at human SST1.
Data set [16] deals with Somatostatin receptor type 3 (Homo sapiens, UniProt P32745). The experiment in a line: Agonist activity at human SST3.
Sequence of Somatostatin receptor type 3 (P32745 whole entry): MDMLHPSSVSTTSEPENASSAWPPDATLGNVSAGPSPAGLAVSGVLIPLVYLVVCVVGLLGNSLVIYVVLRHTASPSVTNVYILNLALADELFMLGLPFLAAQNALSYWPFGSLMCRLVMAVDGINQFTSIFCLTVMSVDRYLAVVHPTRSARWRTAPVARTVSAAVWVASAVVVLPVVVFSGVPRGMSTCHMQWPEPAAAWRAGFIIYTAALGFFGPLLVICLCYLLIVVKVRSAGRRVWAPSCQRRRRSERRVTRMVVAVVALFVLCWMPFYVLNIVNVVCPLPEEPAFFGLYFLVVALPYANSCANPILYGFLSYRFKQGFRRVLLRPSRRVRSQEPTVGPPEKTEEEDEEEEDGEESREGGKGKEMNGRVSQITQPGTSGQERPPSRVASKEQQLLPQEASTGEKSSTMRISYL

Molecules are shown by their SMILES. Where only a bound is given, the exact number is not on record here.

Sequence of Somatostatin receptor type 1 (P30872 whole entry): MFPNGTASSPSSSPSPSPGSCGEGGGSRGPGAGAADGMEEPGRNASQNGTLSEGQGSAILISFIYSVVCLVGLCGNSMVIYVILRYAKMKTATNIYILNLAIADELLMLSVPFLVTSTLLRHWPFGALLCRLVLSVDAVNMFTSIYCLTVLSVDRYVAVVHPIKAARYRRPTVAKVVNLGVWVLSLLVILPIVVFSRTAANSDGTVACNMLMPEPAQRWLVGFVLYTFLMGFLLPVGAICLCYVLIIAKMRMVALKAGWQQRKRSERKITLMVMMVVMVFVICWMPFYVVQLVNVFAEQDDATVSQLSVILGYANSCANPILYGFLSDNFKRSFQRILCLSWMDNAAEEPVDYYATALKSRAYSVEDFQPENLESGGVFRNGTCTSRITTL
Sequence of Cytochrome P450 2C19 (P33261 whole entry): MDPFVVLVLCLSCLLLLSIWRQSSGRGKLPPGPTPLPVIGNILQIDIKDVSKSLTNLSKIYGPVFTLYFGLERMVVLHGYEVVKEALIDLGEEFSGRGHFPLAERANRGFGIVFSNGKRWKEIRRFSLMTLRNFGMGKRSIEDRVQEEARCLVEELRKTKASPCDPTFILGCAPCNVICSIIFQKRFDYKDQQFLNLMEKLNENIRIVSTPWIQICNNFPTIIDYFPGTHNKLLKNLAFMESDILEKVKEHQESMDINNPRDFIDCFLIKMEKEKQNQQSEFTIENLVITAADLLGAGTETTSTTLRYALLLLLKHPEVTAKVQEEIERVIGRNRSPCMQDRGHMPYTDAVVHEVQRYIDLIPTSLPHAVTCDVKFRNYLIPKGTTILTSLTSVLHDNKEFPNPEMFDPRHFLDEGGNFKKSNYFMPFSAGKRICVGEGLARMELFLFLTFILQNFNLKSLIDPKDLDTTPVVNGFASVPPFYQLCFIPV
Sequence of Cytochrome P450 2C9 (P11712 whole entry): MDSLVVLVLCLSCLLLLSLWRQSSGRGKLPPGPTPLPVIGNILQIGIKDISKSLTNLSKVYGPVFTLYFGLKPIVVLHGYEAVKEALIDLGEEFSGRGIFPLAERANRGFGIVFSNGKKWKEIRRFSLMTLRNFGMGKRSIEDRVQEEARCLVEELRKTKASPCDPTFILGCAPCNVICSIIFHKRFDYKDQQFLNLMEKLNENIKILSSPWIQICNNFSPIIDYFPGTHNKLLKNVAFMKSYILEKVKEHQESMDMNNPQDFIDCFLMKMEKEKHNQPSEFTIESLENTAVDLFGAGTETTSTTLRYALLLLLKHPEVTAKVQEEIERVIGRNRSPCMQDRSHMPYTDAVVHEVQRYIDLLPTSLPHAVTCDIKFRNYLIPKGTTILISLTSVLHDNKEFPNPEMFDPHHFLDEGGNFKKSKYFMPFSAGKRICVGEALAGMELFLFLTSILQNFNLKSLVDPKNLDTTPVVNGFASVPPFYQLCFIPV

With `Cc1cc(Cl)cc(-c2cnc3ncn(-c4cc(O)cc(F)c4)c(=O)c3c2CN(C)C[C@@H]2CCCN2)c1`, the Activity entry in [1] is “Dose-dependent effect”. Moreover, the bioavailability (usually the share of a dose that reaches the circulation, judged against a reference dose that is usually intravenous) in [2] is 14%. In addition, the AUC(0-inf) (commonly the area under the concentration-time curve extrapolated to infinity) in data set [3] was 329 ng·h/mL. In addition, in data set [4], the highest concentration (Cmax) (as a rule, the highest concentration seen after dosing) came to 43 ng/mL. Besides, in data set [5], the Vd was found to be 11.9 L/kg. Also, the half-life (in general, the time needed for the level to fall by half in the phase considered) is 204 min in data set [6], 23 min in [7] and 35 min in [10]. The clearance – broadly, the volume of plasma or blood freed of the substance per unit of time – in data set [8] amounted to 73 mL/min/kg. Moreover, the IC50 (as a rule, the concentration at which inhibition is half-maximal) in data set [9] was > 10000 nM; in [11], > 10000 nM; in [12], > 10000 nM; in data set [13] it was 3160 nM. In addition, the values for the 50% effective concentration (EC50) in [14], in [15] and in [16] were > 1000 nM, 316 nM and 7.94 nM, respectively.

The values above are taken from ChEMBL document CHEMBL4665759, “Discovery of substituted 3H-pyrido[2,3-d]pyrimidin-4-ones as potent, biased, and orally bioavailable sst2 agonist” (Bioorg Med Chem Lett, 2020).
